The values that follow come from patent publication US9187497B2, “Substituted pyrido[3,2-e]pyrrolo[1,2-a]pyrazines as inhibitors of poly(ADP-ribose)polymerase (PARP)” (Takeda Phamaceutical Company Limited, priority 2009, dated 2015).

One series relates to Jurkat cell line. The series is described as follows: PARP cellular chemopotentiation assay (MTS cell viability with and without TMZ). Format: cell-based. The note with it: ratio of EC50 for inhibition of cell viability without and with 100 μM TMZ; Jurkat cells, 96 hours of treatment. The method, boiled down:
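Jurkat cells, 10,000/well, pre-cultured 24 h, then treated 96 h with serial compound dilutions (0.5% DMSO) with or without 100 μM TMZ. Viability by MTS conversion (OD490), normalized to DMSO controls; EC50 from curve fits, PF50 = EC50 without TMZ / EC50 with TMZ.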

Series [1] addresses T1, catalytic domain of Human PARP (Homo sapiens, UniProt P09874).
T1 construct: The catalytic domain of Human PARP was cloned and prepared; made in house
The series is described as follows: Biacore surface plasmon resonance affinity assay (dissociation constant KD). Format: binding. The note with it: pKD=-log(KD), KD in molar concentration; Biacore T100, 25° C. The procedure: Dissociation Constant (KD) from Surface Plasmon Resonance
The catalytic domain of Human PARP was cloned and prepared as described in Kinoshita, T.; Nakanishi, I.; Warizaya, M.; Iwashita, A.; Kido, Y.; Hattori, K. and Fujii, T. 2006 FEBS Letters 556, 43-46. Purified enzyme was stored at −80° C. in 25 mM Tris(hydroxymethyl)aminomethane (Tris) pH 7.4, 150 mM NaCl, 2 mM dithiothreitol (DTT) at a concentration of 6 mg/ml.
Biacore affinity assays for test compounds were conducted on a Biacore T100 (GE Healthcare) as follows. A Series S Sensor Chip CM5 (part number BR-1006-68, GE Healthcare) was activated for amide coupling with an Amine Coupling Kit (part number BR-1000-50, GE Healthcare) as described by the manufacturer. The mobile phase buffer consisted of Biacore buffer HBS-P (part number BR-1003-68, GE Healthcare) supplemented with 1% v/v dimethylsulfoxide (DMSO), 0.5 mM Tris(2-carboxyethyl)phosphine hydrochloride (TCEP), and 5 mM MgCl2. Enzyme samples (2 μl/6 mg/ml) stored at −80° C. were diluted to 0.080 mg/ml with 10 mM 4-morpholineethanesulfonic acid (MES) pH 6.5 and then mounted on the activated Biacore CM5 chip at a flow rate of 10 μl/min for 240 seconds. When successfully mounted, a signal of approximately 8,000 reflective units was observed. Test compounds were diluted 9 times 2-fold serially in mobile phase buffer (listed above) at 1% v/v DMSO final to generate a concentration gradient bracketing their anticipated KDs. Biacore mounted PARP was given a 1 minute exposure (association phase) to various concentrations of test compounds to observe a steady state equilibrium or an on rate. The exposure was followed with a dissociation phase of 5 minutes. The association and dissociation phases were at a flow rate of 50 μl/min and a temperature of 25° C.
Parameters Rmax (response at saturation) and KD (binding constant) were calculated through a nonlinear least squares fitting of the equation to the data by use of the Biacore T100 analysis software.
Parameter optimization was through a nonlinear least squares analysis of the association phase Response=Rmax*(1−exp(−(kon[cmpd]+koff)*t)) and dissociation phase Response=[…] by use of the Biacore T100 analysis software. The binding constant KD was calculated from the definition KD=koff/kon
For orientation: SPR reads the build-up and loss of mass on a sensor chip optically.

For the next series, the target named is T2, PARP (Homo sapiens, UniProt P09874).
T2 construct: purchased Trevigen 4684-096-01 (enzyme); kit 4684-096-K HT
T2 sequence (P09874 whole entry): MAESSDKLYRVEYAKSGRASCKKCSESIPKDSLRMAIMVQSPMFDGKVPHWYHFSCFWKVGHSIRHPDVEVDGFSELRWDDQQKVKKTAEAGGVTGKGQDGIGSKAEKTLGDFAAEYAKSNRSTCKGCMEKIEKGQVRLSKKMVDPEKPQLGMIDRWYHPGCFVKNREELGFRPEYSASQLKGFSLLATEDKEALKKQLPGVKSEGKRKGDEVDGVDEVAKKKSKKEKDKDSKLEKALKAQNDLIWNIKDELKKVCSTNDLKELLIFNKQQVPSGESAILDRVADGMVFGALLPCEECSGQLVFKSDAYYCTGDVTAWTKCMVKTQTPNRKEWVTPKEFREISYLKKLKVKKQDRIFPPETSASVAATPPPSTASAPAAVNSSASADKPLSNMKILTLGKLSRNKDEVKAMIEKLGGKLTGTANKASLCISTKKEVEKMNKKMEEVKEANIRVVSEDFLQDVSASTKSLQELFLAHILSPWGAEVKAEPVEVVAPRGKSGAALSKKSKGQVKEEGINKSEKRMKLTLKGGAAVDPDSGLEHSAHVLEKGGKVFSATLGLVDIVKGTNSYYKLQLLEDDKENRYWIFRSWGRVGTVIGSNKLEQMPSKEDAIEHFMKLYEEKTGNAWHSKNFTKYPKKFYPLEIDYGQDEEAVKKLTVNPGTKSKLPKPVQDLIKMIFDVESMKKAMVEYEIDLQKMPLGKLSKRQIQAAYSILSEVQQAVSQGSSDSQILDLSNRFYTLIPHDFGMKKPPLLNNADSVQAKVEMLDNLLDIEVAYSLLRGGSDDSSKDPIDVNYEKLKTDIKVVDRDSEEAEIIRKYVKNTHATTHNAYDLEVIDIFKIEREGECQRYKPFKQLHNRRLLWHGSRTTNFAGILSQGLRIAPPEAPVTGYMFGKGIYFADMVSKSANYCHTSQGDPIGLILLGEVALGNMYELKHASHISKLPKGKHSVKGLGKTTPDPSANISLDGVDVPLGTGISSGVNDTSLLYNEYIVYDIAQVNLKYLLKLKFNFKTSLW
Description: PARP ELISA colorimetric assay of inhibition of PARP catalytic activity (IC50). Format: biochemical. The note with it: pIC50=-log(IC50), IC50 in molar concentration; ELISA-based PARP kit, 10 minutes of catalysis. The method, boiled down:
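Human PARP was added as a 0.1 nM solution to histone-coated wells with compound for a 10-min ambient preincubation. The reaction was started with 100 μM NAD+ solution plus activated DNA and run 10 min. PAR formation was detected by anti-PAR ELISA, colorimetric. IC50 came from a 12-point, 3-fold gradient fitted by nonlinear least squares to a Hill equation.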

T1 sequence (P09874 788-1014 limits assumed): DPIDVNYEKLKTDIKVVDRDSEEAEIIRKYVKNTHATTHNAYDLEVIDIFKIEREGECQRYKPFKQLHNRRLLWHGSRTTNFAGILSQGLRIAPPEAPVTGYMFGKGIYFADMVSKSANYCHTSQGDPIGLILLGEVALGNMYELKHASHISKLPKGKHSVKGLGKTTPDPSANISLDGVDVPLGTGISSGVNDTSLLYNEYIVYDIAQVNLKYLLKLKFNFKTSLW

In the case of `O=C1Nc2cc(CN3CCN(c4ccc(Cl)cc4)CC3)cnc2N2CCC[C@@H]12` [Compound 1, (S)-3-((4-(4-chlorophenyl)piperazin-1-yl)methyl)-6a,7,8,9-tetrahydropyrido[3,2-e]pyrrolo[1,2-a]pyrazin-6(5H)-one], the melting point (in general, the temperature, or range, at which the solid turns liquid) was in the range of 265 to 268 °C. Also, the PF50 in the series with Jurkat cell line is on record as over 500.
Regarding `O=C1Nc2cc(CN3CC=C(c4ccc(Cl)cc4)CC3)cnc2N2CCC[C@@H]12` [Compound 2, (S)-3-((4-(4-chlorophenyl)-5,6-dihydropyridin-1(2H)-yl)methyl)-6a,7,8,9-tetrahydropyrido[3,2-e]pyrrolo[1,2-a]pyrazin-6(5H)-one], the melting point lay in the range of 234 to 235 °C. In series [1], the equilibrium dissociation constant (Kd) – broadly, a measure of binding affinity in units of concentration – was under 31.6 nM. Also, the PF50 with Jurkat cell line is given as over 2000.
The compound `N#Cc1ccc(N2CCN(Cc3cnc4c(c3)NC(=O)[C@@H]3CCCN43)CC2)cc1` [Compound 4, (S)-4-(4-((6-oxo-5,6,6a,7,8,9-hexahydropyrido[3,2-e]pyrrolo[1,2-a]pyrazin-3-yl)methyl)piperazin-1-yl)benzonitrile] returned a melting point of 252 °C. Moreover, at PARP, the IC50 – broadly, the midpoint of a concentration-inhibition curve – was 15.8 to 39.8 nM. The PF50 with Jurkat cell line was over 2000.
Compound `N#Cc1ccc(N2CCN(Cc3cnc4c(c3)NC(=O)[C@@H]3CCCN43)CC2)nc1` [Compound 5, (S)-6-(4-((6-oxo-5,6,6a,7,8,9-hexahydropyrido[3,2-e]pyrrolo[1,2-a]pyrazin-3-yl)methyl)piperazin-1-yl)nicotinonitrile] registered a melting point of 252 to 256 °C. Moreover, the IC50 against PARP is 15.8 to 39.8 nM. Moreover, the Kd in series [1] was under 31.6 nM. Further, the PF50 in the series with Jurkat cell line is recorded as over 5000.
`O=C(NC1CC1)c1ccc(N2CCN(Cc3cnc4c(c3)NC(=O)[C@@H]3CCCN43)CC2)cc1` [Compound 13, (S)—N-cyclopropyl-4-(4-((6-oxo-5,6,6a,7,8,9-hexahydropyrido[3,2-e]pyrrolo[1,2-a]pyrazin-3-yl)methyl)piperazin-1-yl)benzamide] returned a melting point of 265 to 268 °C. At PARP, the IC50 was 15.8 to 39.8 nM. Besides, the PF50 in the series on Jurkat cell line is given as over 5000.
`N#Cc1ccc(N2CCN(Cc3cnc4c(c3)NC(=O)[C@@H]3CCCN43)CC2)c(F)c1` [Compound 14, (S)-3-fluoro-4-(4-((6-oxo-5,6,6a,7,8,9-hexahydropyrido[3,2-e]pyrrolo[1,2-a]pyrazin-3-yl)methyl)piperazin-1-yl)benzonitrile] had a melting point of 226 °C. Moreover, the PF50 in the series with Jurkat cell line is reported as over 500.
In the same order, the values of `N#Cc1ccc(N2CCN(Cc3cnc4c(c3)NC(=O)[C@@H]3CCCN43)CC2)c(Cl)c1` [Compound 16, (S)-3-chloro-4-(4-((6-oxo-5,6,6a,7,8,9-hexahydropyrido[3,2-e]pyrrolo[1,2-a]pyrazin-3-yl)methyl)piperazin-1-yl)benzonitrile] are 213 to 215 °C and over 500.
In the same order, the values of `N#Cc1cc(F)c(N2CCN(Cc3cnc4c(c3)NC(=O)[C@@H]3CCCN43)CC2)cc1F` [Compound 17, (S)-2,5-difluoro-4-(4-((6-oxo-5,6,6a,7,8,9-hexahydropyrido[3,2-e]pyrrolo[1,2-a]pyrazin-3-yl)methyl)piperazin-1-yl)benzonitrile] are 224 to 227 °C and over 2000.
`N#Cc1ccc(N2CCN(Cc3cnc4c(c3)NC(=O)[C@@H]3CCCN43)CC2)cc1F` [Compound 21, (S)-2-fluoro-4-(4-((6-oxo-5,6,6a,7,8,9-hexahydropyrido[3,2-e]pyrrolo[1,2-a]pyrazin-3-yl)methyl)piperazin-1-yl)benzonitrile] showed a melting point of 251 to 255 °C. Also, the PF50 with Jurkat cell line was over 2000.
`N#Cc1ccc(N2CCN(Cc3cnc4c(c3)NC(=O)[C@@H]3CCCCN43)CC2)cc1` [Compound 71, (S)-4-(4-((6-oxo-6,6a,7,8,9,10-hexahydro-5H-dipyrido[1,2-a:3′,2′-e]pyrazin-3-yl)methyl)piperazin-1-yl)benzonitrile]: the melting point was found to be 212.2 °C. This compound also gave an IC50 at PARP of at most 12.6 nM. Also, the PF50 in the series with Jurkat cell line is on record as over 500.
The matching figures for `CCNC(=O)c1ccc(N2CCN(Cc3cnc4c(c3)NC(=O)[C@@H]3CCCCN43)CC2)cc1` [Compound 73, (S)—N-ethyl-4-(4-((6-oxo-6,6a,7,8,9,10-hexahydro-5H-dipyrido[1,2-a:3′,2′-e]pyrazin-3-yl)methyl)piperazin-1-yl)benzamide]: 232.6 °C, at most 12.6 nM and over 2000.
Consider `O=C1Nc2cc(CN3CCC(c4ccc(Cl)cc4)CC3)cnc2N2CCSCC12` (stereo not shown) [Compound 88, 3-((4-(4-chlorophenyl)piperidin-1-yl)methyl)-6a,7,9,10-tetrahydropyrido[3,2-e][1,4]thiazino[4,3-a]pyrazin-6(5H)-one], for which the half-maximal inhibitory concentration (IC50) at PARP is at most 12.6 nM. The Kd in series [1] is under 31.6 nM. The PF50 result with Jurkat cell line was “≧0”.
For `CCNC(=O)c1ccc(N2CCN(Cc3cnc4c(c3)NC(=O)[C@@H]3CSCCN43)CC2)cc1` [Compound 92, (R)—N-ethyl-4-(4-((6-oxo-5,6,6a,7,9,10-hexahydropyrido[3,2-e][1,4]thiazino[4,3-a]pyrazin-3-yl)methyl)piperazin-1-yl)benzamide], the melting point was determined as 288.9 °C. For the same compound, in the series with Jurkat cell line, the PF50 is over 5000.
Take `CCOC(=O)c1ccc(N2CCN(Cc3cnc4c(c3)NC(=O)[C@@H]3CCCN43)CC2)cc1` [Compound 101, (S)-ethyl 4-(4-((6-oxo-5,6,6a,7,8,9-hexahydropyrido[3,2-e]pyrrolo[1,2-a]pyrazin-3-yl)methyl)piperazin-1-yl)benzoate]: the melting point turned out to be 242 °C. Besides, at PARP, the IC50 is at least 50.1 nM. In addition, in the series with Jurkat cell line, the PF50 is reported as over 10.
For the compound `O=C1Nc2cc(CN3CCN(c4ccc(C(=O)N5CCCC5)cc4)CC3)cnc2N2CCC[C@@H]12` [Compound 138, (S)-3-((4-(4-(pyrrolidine-1-carbonyl)phenyl)piperazin-1-yl)methyl)-6a,7,8,9-tetrahydropyrido[3,2-e]pyrrolo[1,2-a]pyrazin-6(5H)-one], the melting point is 121.3 °C. On PARP, the IC50 was at least 50.1 nM. In the series on Jurkat cell line, the PF50 entry is given as “≧0”.
In turn, `CN(C)C(=O)c1ccc(N2CCN(Cc3cnc4c(c3)NC(=O)[C@@H]3CCCN43)CC2)cc1` [Compound 139, (S)—N,N-dimethyl-4-(4-((6-oxo-5,6,6a,7,8,9-hexahydropyrido[3,2-e]pyrrolo[1,2-a]pyrazin-3-yl)methyl)piperazin-1-yl)benzamide] yielded a melting point of 99.2 °C. The IC50 against PARP was at least 50.1 nM. In the series with Jurkat cell line, the PF50 entry is on record as “≧0”.
`CCN(C)C(=O)c1ccc(N2CCN(Cc3cnc4c(c3)NC(=O)[C@@H]3CCCN43)CC2)cc1` [Compound 140, (S)—N-ethyl-N-methyl-4-(4-((6-oxo-5,6,6a,7,8,9-hexahydropyrido[3,2-e]pyrrolo[1,2-a]pyrazin-3-yl)methyl)piperazin-1-yl)benzamide] returned a melting point of 91.9 °C. The compound further had an IC50 at PARP of at least 50.1 nM. The PF50 entry in the series with Jurkat cell line is reported as “≧0”.
The matching figures for `Cc1cc(C(=O)NC2CC2)ccc1N1CCN(Cc2cnc3c(c2)NC(=O)[C@@H]2CCCN32)CC1` [Compound 142, (S)—N-cyclopropyl-3-methyl-4-(4-((6-oxo-5,6,6a,7,8,9-hexahydropyrido[3,2-e]pyrrolo[1,2-a]pyrazin-3-yl)methyl)piperazin-1-yl)benzamide]: 226.7 to 233.5 °C, at most 12.6 nM and over 2000.
